Assay [1] is described as follows: Inhibition of Bacteroides thetaiotaomicron recombinant alpha-L-fucosidase using 2-chloro-4-nitrophenyl-alpha-L-fucopyranoside as substrate after 5 mins by Michaelis Menten equation analysis.
Assay [2] in a line: Inhibition of bovine kidney fucosidase. More on the design: species or system Bos taurus.

These results are taken from ChEMBL document CHEMBL2407074, “Three dimensional structure of a bacterial α-l-fucosidase with a 5-membered iminocyclitol inhibitor” (Bioorg Med Chem, 2013).

The structures appear in SMILES notation. pKi: −log10 of the molar value.

The pKi is the negative decadic logarithm of the Ki, by convention in mol/L. For `C[C@@H]1N[C@@H](c2nc3ccccc3[nH]2)[C@H](O)[C@@H]1O`, the pKi in assay [1] was 5.70; in assay [2] it was 7.10.
